Assays:
[1] = biological target: T1, Gal4-RORγ-LBD (Homo sapiens, UniProt P51449); assay: Gal4-RORγ Luciferase Reporter Assay in HEK-293T Cells; assay type: cell-based; details: HEK-293 cells; for Gal4-RORγ Assay Max Response: maximum response
T1 construct: expressed in transfected cells
T1 sequence (P51449 269-508 limits assumed): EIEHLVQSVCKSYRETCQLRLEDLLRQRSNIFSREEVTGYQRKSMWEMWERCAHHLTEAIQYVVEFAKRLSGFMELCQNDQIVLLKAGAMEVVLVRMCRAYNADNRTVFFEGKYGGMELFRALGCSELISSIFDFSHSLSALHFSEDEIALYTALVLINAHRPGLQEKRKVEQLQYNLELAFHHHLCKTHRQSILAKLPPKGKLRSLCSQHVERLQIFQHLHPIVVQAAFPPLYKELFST
In short: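 HEK-293 cells were co-transfected with Gal4-RORγ-LBD and a Gal4-luciferase reporter, then exposed overnight at 37 °C to compounds with […] ursolic acid present (0.2% DMSO). Luminescence was read with One-Glo after 10 min at RT, untreated signal was set as 100, and Max Response was taken as the upper plateau of a 4-parameter logistic fit.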

[2] = biological target: T2, RORγ-LBD (Homo sapiens, UniProt P51449); assay: RORγ-Ligand Binding Domain (LBD) TR-FRET Assay; assay type: biochemical; details: for TR-FRET Assay Max Response: maximum response;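 for TR-FRET Assay Max Response: 665/615 nm signal ratio set to 100 without ursolic acid or test compound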
T2 construct: made in house; host or cells: SF9 cells (baculovirus); used as diluted lysate
T2 sequence (P51449 269-508 limits assumed): T1 sequence (P51449 269-508 limits assumed)
In short: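 SF9 lysate containing His-RORγ-LBD, ~3 nM final; coactivator peptide biotin-SRC1 LXXLL, 200 nM final; ursolic acid 2 μM final; DMSO 1% final; Tris pH 7.0 buffer with KCl, EDTA, DTT, BSA. TR-FRET format.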

[3] = luciferase reporter, in presence of ursolic acid
[4] = luciferase reporter, with ursolic acid
[5] = ursolic acid present, luciferase readout
[6] = with 2 μM ursolic acid (RORγ antagonist), highest test concentration 10 μM

Structure (SMILES) | EC50 [1, 3] | EC50 ([2]; RORγ-LBD TR-FRET assay) | EC50 [1, 4] | EC50 ([2]; RORγ-LBD TR-FRET) | Gal4-RORγ Assay Max Response [1, 3] | TR-FRET Assay Max Response ([2]; RORγ-LBD TR-FRET assay) | also measured
C/C(=C\c1ccc2c(c1)N(S(=O)(=O)c1cccc(C(F)(F)F)c1)C[C@H]([C@@H](C)N)O2)c1c(F)cccc1Cl [Example 100, (R)-1-((R)-6-((E)-2-(2-Chloro-6-fluorophenyl)prop-1-en-1-yl)-4-((3-(trifluoromethyl)phenyl)sulfonyl)-3,4-dihydro-2H-benzo[b][1,4]oxazin-2-yl)ethan-1-amine] | – | – | 0.5 to 5 µM | < 0.5 µM | – | – | –
O=C(O)CC[C@H]1CN(S(=O)(=O)c2cccc(C(F)(F)F)c2)c2cc(C3=CCCC3)ccc2O1 [Example 192, (S)-3-(6-(cyclopent-1-en-1-yl)-4-((3-(trifluoromethyl)phenyl)sulfonyl)-3,4-dihydro-2H-benzo[b][1,4]oxazin-2-yl)propanoic acid] | – | – | – | – | – | – | EC50 [1, 5]: 0.5 to 5 µM; EC50 [2, 6]: < 0.5 µM
O=C(O)CO[C@@H]1Cc2ccc(OCc3c(F)cccc3Cl)cc2N(S(=O)(=O)c2cccc(C(F)(F)F)c2)C1 [Example 157, (R)-2-((7-((2-Chloro-6-fluorobenzyl)oxy)-1-((3-(trifluoromethyl)phenyl)sulfonyl)-1,2,3,4-tetrahydroquinolin-3-yl)oxy)acetic acid] | 0.5 to 5 µM | < 0.5 µM | – | – | ** (a value in the range of greater than 90 to 150) | ** (a value in the range of greater than 90 to 150) | –
CCOc1sc(CC)nc1S(=O)(=O)N1C[C@H](CCC(=O)OC)Oc2ccc(/C=C(\C)c3c(F)cccc3Cl)cc21 [Example 72, Methyl (S,E)-3-(6-(2-(2-chloro-6-fluorophenyl)prop-1-en-1-yl)-4-((5-ethoxy-2-ethylthiazol-4-yl)sulfonyl)-3,4-dihydro-2H-benzo[b][1,4]oxazin-2-yl)propanoate] | – | – | < 0.5 µM | < 0.5 µM | – | – | –
COC(=O)CC[C@H]1CN(S(=O)(=O)c2cccc(C(F)(F)F)c2)c2cc(/C=C(\C)c3ccccc3C(F)(F)F)ccc2O1 [Example 86AH, (S,E)-methyl 3-(6-(2-(2-(trifluoromethyl)phenyl)prop-1-en-1-yl)-4-((3-(trifluoromethyl)phenyl)-sulfonyl)-3,4-dihydro-2H-benzo[b][1,4]oxazin-2-yl)propanoate] | – | – | 0.5 to 5 µM | < 0.5 µM | – | – | –
C/C(=C\c1ccc2c(c1)N(S(=O)(=O)c1cccc(C(F)(F)F)c1)[C@H](C)[C@H](NC(=O)N(C)C)C2)c1c(F)cccc1Cl [Example 146, 3-((2R,3R)-7-((E)-2-(2-Chloro-6-fluorophenyl)prop-1-en-1-yl)-2-methyl-1-((3-(trifluoromethyl)phenyl)sulfonyl)-1,2,3,4-tetrahydroquinolin-3-yl)-1,1-dimethylurea] | > 10 µM | < 0.5 µM | – | – | – | ** (a value in the range of greater than 90 to 150) | –
C/C(=C\c1ccc2c(c1)N(S(=O)(=O)c1cccc(C(F)(F)F)c1)CCC2=O)c1c(F)cccc1Cl [Example 188, (E)-7-(2-(2-chloro-6-fluorophenyl)prop-1-en-1-yl)-1-((3-(trifluoromethyl)phenyl)sulfonyl)-2,3-dihydroquinolin-4(1H)-one] | 0.5 to 5 µM | < 0.5 µM | – | – | ** (a value in the range of greater than 90 to 150) | **** (a value greater than 200) | –
O=C(O)C[C@H]1CN(S(=O)(=O)c2cccc(C(F)(F)F)c2)c2cc(COc3c(F)cccc3Cl)ccc2O1 | – | – | – | – | – | – | EC50 [1, 5]: 0.5 to 5 µM; EC50 [2, 6]: < 0.5 µM
C/C(=C\c1ccc2c(c1)N(S(=O)(=O)c1cn(C(C)C)nc1OCCO)C[C@H](CCC(=O)O)O2)c1c(F)cccc1Cl [Example 86AY, (S,E)-3-(6-(2-(2-chloro-6-fluorophenyl)prop-1-en-1-yl)-4-((3-(2-hydroxyethoxy)-1-isopropyl-1H-pyrazol-4-yl)sulfonyl)-3,4-dihydro-2H-benzo[b][1,4]oxazin-2-yl)propanoic acid] | – | – | < 0.5 µM | < 0.5 µM | – | – | –

More lines, main results first:

EC50 [1, 3] | EC50 ([2]; RORγ-LBD TR-FRET assay) | EC50 [1, 4] | EC50 ([2]; RORγ-LBD TR-FRET) | Structure (SMILES) | Gal4-RORγ Assay Max Response [1, 3] | TR-FRET Assay Max Response ([2]; RORγ-LBD TR-FRET assay) | also measured
> 10 µM | < 0.5 µM | – | – | COc1cc(S(=O)(=O)C2CC(CC(C)(C)C(=O)O)Oc3ccc(OCc4c(F)cccc4Cl)cc32)ccc1F (stereo not drawn) [Example 186C, 3-(6-((2-chloro-6-fluorobenzyl)oxy)-4-((4-fluoro-3-methoxyphenyl)sulfonyl)chroman-2-yl)-2,2-dimethylpropanoic acid] | ** (a value in the range of greater than 90 to 150) | *** (a value in the range of greater than 150 to 200) | –
0.5 to 5 µM | < 0.5 µM | – | – | O=C(CC[C@H]1CN(S(=O)(=O)c2cccc(C(F)(F)F)c2)c2cc(/C=C/c3c(Cl)cccc3C(F)(F)F)ccc2O1)N1CC2(COC2)C1 [Example 127G, (S,E)-3-(6-(2-chloro-6-(trifluoromethyl)styryl)-4-((3-(trifluoromethyl)-phenyl)sulfonyl)-3,4-dihydro-2H-benzo[b][1,4]oxazin-2-yl)-1-(2-oxa-6-azaspiro[3.3]heptan-6-yl)propan-1-one] | * (a value in the range of 30 to 90) | **** (a value greater than 200) | –
0.5 to 5 µM | < 0.5 µM | – | – | O=C(CC[C@H]1CN(S(=O)(=O)c2cccc(C(F)(F)F)c2)c2cc(/C=C/c3c(F)cccc3Cl)ccc2O1)N1CC2(COC2)C1 [Example 127I, (S,E)-3-(6-(2-chloro-6-fluorostyryl)-4-((3-(trifluoromethyl)phenyl)sulfonyl)-3,4-dihydro-2H-benzo[b][1,4]oxazin-2-yl)-1-(2-oxa-6-azaspiro[3.3]heptan-6-yl)propan-1-one] | ** (a value in the range of greater than 90 to 150) | *** (a value in the range of greater than 150 to 200) | –
– | – | > 10 µM | 0.5 to 5 µM | CCOc1nn(CC)cc1S(=O)(=O)N1C[C@H](CCC(=O)OC)Oc2ccc(/C=C/c3cccc(Cl)n3)cc21 [Example 89AB, (S,E)-methyl 3-(6-(2-(6-chloropyridin-2-yl)vinyl)-4-((3ethoxy-1-ethyl-1H-pyrazol-4-yl)sulfonyl)-3,4-dihydro-2H-benzo[b][1,4]oxazin-2-yl)propanoate] | – | – | –
– | – | 0.5 to 5 µM | < 0.5 µM | Cc1cc(O)cc(C)c1/C=C/c1ccc2c(c1)N(S(=O)(=O)c1cccc(C(F)(F)F)c1)C[C@H](CCC(=O)O)O2 [Example 89BG, (S,E)-3-(6-(4-hydroxy-2,6-dimethylstyryl)-4-((3-(trifluoromethyl)phenyl)sulfonyl)-3,4-dihydro-2H-benzo[b][1,4]oxazin-2-yl)propanoic acid] | – | – | –
< 0.5 µM | < 0.5 µM | – | – | O=C(O)C1CCN(C(=O)CC[C@H]2CN(S(=O)(=O)c3cccc(C(F)(F)F)c3)c3cc(/C=C/c4c(F)cccc4Cl)ccc3O2)CC1 [Example 129O, (S,E)-1-(3-(6-(2-chloro-6-fluorostyryl)-4-((3-(trifluoromethyl)phenyl)sulfonyl)-3,4-dihydro-2H-benzo[b][1,4]oxazin-2-yl)propanoyl)piperidine-4-carboxylic acid] | ** (a value in the range of greater than 90 to 150) | *** (a value in the range of greater than 150 to 200) | –
– | – | < 0.5 µM | < 0.5 µM | CCOc1nn(CC)cc1S(=O)(=O)N1C[C@H](CCC(=O)O)Oc2ccc(/C=C/c3c(Cl)cccc3C(F)(F)F)cc21 [Example 89DO, (S,E)-3-(6-(2-chloro-6-(trifluoromethyl)styryl)-4-((3-ethoxy-1-ethyl-1H-pyrazol-4-yl)sulfonyl)-3,4-dihydro-2H-benzo[b][1,4]oxazin-2-yl)propanoic acid] | – | – | –
– | – | < 0.5 µM | < 0.5 µM | COC(=O)CC[C@H]1CN(S(=O)(=O)c2cc(C(F)(F)F)cnc2OCCO)c2cc(/C=C/c3c(Cl)cccc3C(F)F)ccc2O1 [Example 89EL, methyl (S,E)-3-(6-(2-chloro-6-(difluoromethyl)styryl)-4-((2-(2-hydroxyethoxy)-5-(trifluoromethyl)pyridin-3-yl)sulfonyl)-3,4-dihydro-2H-benzo[b][1,4]oxazin-2-yl)propanoate] | – | – | –
– | – | 0.5 to 5 µM | < 0.5 µM | CCOc1nn(CC)cc1S(=O)(=O)N1C[C@H](CCC(=O)O)Oc2ccc(/C=C/c3c(F)cccc3F)cc21 [Example 89AE, (S,E)-3-(6-(2,6-difluorostyryl)-4-((3-ethoxy-1-ethyl-1H-pyrazol-4-yl)sulfonyl)-3,4-dihydro-2H-benzo[b][1,4]-oxazin-2-yl)propanoic acid] | – | – | –
– | – | 0.5 to 5 µM | < 0.5 µM | Cc1cccc2c1c(/C=C/c1ccc3c(c1)N(S(=O)(=O)c1cccc(C(F)(F)F)c1)C[C@H](CCC(=O)O)O3)nn2C [Example 89BN, (S,E)-3-(6-(2-(1,4-dimethyl-1H-indazol-3-yl)vinyl)-4-((3-(trifluoromethyl)phenyl)sulfonyl)-3,4-dihydro-2H-benzo[b][1,4]oxazin-2-yl)propanoic acid] | – | – | –
